Data from US6410587B1, “Compounds and therapies for the prevention of vascular and non-vascular pathologies” (NeoRx Corporation, priority 1997, dated 2002).
Marks after values point to notes of the source that are not given here. Blank lines part the entries; values can stand above or below the compound they belong to.

Columns and labels:
TGF-beta [1] = assay: TGF-beta production by human VSMCs in culture; format: cell-based; settings: cultured VSMCs
Method: The amount of TGF-beta present in medium conditioned on VSMCs in the presence and absence of aspirin was measured by ELISA.
The ED50 for TGF-beta production of the complex (Cu Aspirinate) was determined in cultured rat and human VSMCs.

[2] = Serum lipid and lipoprotein profile of apoE knockout mice; format: in vivo, mouse; settings: apo(E)−/− mouse
Method: The effect of each treatment on the lipid profile of each group of mice was determined by measuring the cholesterol and triglyceride. Blood from a terminal bleed was collected in a polypropylene tube, allowed to clot at room temperature for 2 hours and then spun (1,000×g; 5 minutes). The serum supernatant was aliquoted and stored at −20° C. until assayed. Total cholesterol and total triglycerides were determined for each mouse using the cholesterol oxidase and glycerol kinase UV end-point enzymatic methods respectively (Sigma Diagnostics).

[3] = cited from earlier work; for long-term carcinogenicity: rats; for covalent (hepatic) DNA adducts: rat, in vivo
NFkB = NFkB translocation (p65 immunostaining) and kB-luciferase reporter activity in human SMCs; format: cell-based
From the text: In cells which had been transfected with a reporter construct which has three consensus kB DNA elements fused to the luciferase gene, the amount of light which was produced when the cell lysate was exposed to luciferin and ATP was proportional to NFkB activity.

TGF-beta [4] = assay: TMX 40 mg/day for 10 days in TVD patients: plasma TGF-beta; format: in vivo, human
Method: Active plus acid-activatable latent (a+1) TGF-beta levels were assayed in platelet-poor plasma using seven different assay methods. There has been debate in the literature regarding the most appropriate way to measure (a+1) TGF-beta, so to avoid difficulties specific to any particular measurement method all the available methods which have been described in the literature were used. The seven methods are:
(A) A sandwich ELISA using BDA19 and BDA5 (R&D Systems) antibodies with no activation step required.
(B) The Quantikine TGF-beta1 ELISA kit (R&D Systems) using acid/urea as the activation buffer in accordance with the manufacturer's instructions
(C) The Quantikine TGF-beta1 ELISA kit (R&D Systems) using acid alone as the activation buffer
(D) The BioTrak TGF-beta1 ELISA kit (Amersham International) using acid/urea as the activation buffer
(E) The BioTrak TGF-beta1 ELISA kit (Amersham International) using acid alone as the activation buffer in accordance with the manufacturers instructions
(F) The TGF-beta1 ELISA kit (Genzyme Diagnostics) using acid/urea as the activation buffer in accordance with the manufacturer's instructions
(G) The TGF-beta1 ELISA kit Promega Corporation) using acid alone as the activation buffer in accordance with the manufacturer's instructions
Replicate aliquots of plasma taken from the same individuals at the same time were assayed by all seven methods.
The partitioning of TGF-beta between the lipoproteins and plasma proteins was analyzed by separating the lipoprotein fraction (d<[…]) from the plasma proteins by density ultracentrifugation as described hereinabove. TGF-beta levels were assayed in both fractions using the Quantikine ELISA kit, following release and activation of TGF-beta with acetic acid and urea in accordance with the manufacturer's instructions. None of the three TGF-beta ELISAs used here detected TGF-beta in the lipoprotein fraction without prior extraction/activation with acetic acid/urea.

[5] = TMX 40 mg/day for 10 days in TVD patients: plasma lipids, Lp(a), PAI-1
From the text: Patients with triple vessel disease (TVD) were defined as individuals having at least 50% stenosis of all three coronary arteries by angiography, which was confirmed by two independent observers. All had stable angina, with no myocardial infarction in the previous three months. Patients with unstable angina, poor left ventricular function, ventricular hypertrophy or diabetes were excluded.
Blood samples were taken and plasma prepared before and during the treatment period, and these samples were analyzed for TGF-beta, Lp(a), PAI-1 and lipoprotein profiles. Patients were asked to fast overnight prior to samples of blood being drawn between 9 am. and 10 a.m. the following morning. Blood samples were drawn by venepuncture of the antecubital vein with no tourniquet applied using a 21 gauge butterfly needle. Half the blood was allowed to clot for 2 hours at room temperature in polypropylene tubes. The clot was spun down (1,500×g; 15 minutes) and aliquots of the serum was stored at −100° C. The remaining blood was dispensed into Diatube H tubes (Diagnostica Stago) and cooled on ice for 15 minutes. Blood cells and platelets were spun down (6,000×g; 30 minutes) and the middle third of the supernatant was taken, carefully avoiding disturbing the pellet. This platelet-poor plasma was stored in aliquots at −100° C. until assayed.
Total plasma triglyceride, total plasma cholesterol, HDL-cholesterol, LDL-cholesterol and VLDL-cholesterol were routinely assayed in all patients.

apoE knockout mice = assay: Lipid lesion development in aortic sinus of apoE knockout mice (Oil Red O); settings: mouse aorta
Method: To determine the efficacy of combination therapy, and to provide evidence for synergism between aspirin and fish oil, 8-week-old female apoE knockout mice were fed aspirin or fish oil, or both, to assess the cardioprotective effects of modulating different components of the TGF-beta pathway.
Group A mice (n=10) were sacrificed at day 0. Group B mice (n=10) were fed normal chow. […] Group D mice (n=10) were fed chow containing 33 mg/kg/day fish oil (200 μg Pulse cod liver oil/g food, Seven Seas Ltd., which contains 0.9 g eicosapentaenoic acid (EPA), and 0.3 g docosahexaenoic acid (DHA)) and 3 mg/kg/day aspirin dissolved in water. Group E mice (n=10) were fed chow containing 33 mg/kg/day fish oil. Group F mice (n=10) were fed chow containing Zocor (simvastatin; Zocor tablets, Merck, Sharpe & Dohme) at 400 μg/kg/day (2 μg/g food).
Groups B-F were fed these regimens for 87 days. All mice were weighed daily for the first week and weekly thereafter. Food and water consumption over a 24 hour period were measured daily for the first 7 days and weekly thereafter.
After 87 days, mice in groups B-F were fasted overnight and then sacrificed. Serum, heart, lungs and aorta samples were collected at the time of sacrifice. The heart, lungs and aorta were removed from each mouse and rinsed in PBS, dabbed dry on tissue and embedded in Cryo-M-bed embedding medium (Bright Instruments, Huntington, U.K.) before snap freezing in liquid nitrogen. Frozen sections (4 μm thickness) of the aortic sinus region were prepared from the heart/lung/aorta blocks according to the sectioning strategy of Paigen et al. (Arteriosclerosis, 10, 316 (1990)). Sections on 5% gelatin-coated slides were stained for neutral lipid by the Oil Red O technique and counter-stained with fast green (Grainger et al., Nature Med., 1, 1067 (1995)).
The development of lipid-filled vascular lesions was determined by the quantitation of oil red O staining for neutral lipid deposited in the aortic sinus region. The area of lipid accumulation was measured using a calibrated microscope eye-piece, such that lipid droplets<50 μm^2 were ignored and contiguous regions of lipid staining>500 μm in area were classified as lesions.

GR = assay: MMTV LTR-CAT reporter in stably transfected SMCs; format: cell-based
From the text: Because ER. interacts with NFkB transcription factor complexes in a similar manner to that for GR, agents which modulate ER/NFkB interaction should modulate the inflammatory response without activating GR. To test this hypothesis, SMCs in DMEM+10% FCS were transfected with a vector comprising the MMTV LTR promoter coupled to the chloramphenicol acetyl transferase (CAT) gene and the neomycin resistance gene (neo). A stably transfected line was selected using geneticin. When these cells were treated with dexamethasone, expression of the CAT gene was elevated 3.7±0.7 fold. […] Thus, ER/NFkB modulators would be expected to circumvent the undesirable side-effect profile associated with direct transcriptional activation by GR.

[6] = test system: mink lung epithelial (MvLu) cells; assay: Inhibition of MvLu cell proliferation; format: cell-based
From the text: It has previously been shown that TGF-beta inhibits the proliferation of mink lung epithelial (MvLu) cells in culture. […] J. Physiol., 265, C571 (1993). […] Addition of lipoprotein purified from the plasma of individual I caused a dose-dependent increase in the ID50 of TGF-beta.

[7] = molecular target: T1, recombinant extracellular domain of the type II TGF-beta receptor (R2X) (Homo sapiens, UniProt P37173); settings: no lipoprotein; previously determined; cited from earlier work
T1 construct: the recombinant extracellular domain of the type II TGF-beta receptor (R2X)

[8] = molecular target: T1, recombinant extracellular domain of the type II TGF-beta receptor (R2X); assay: Binding of recombinant TGF-beta to R2X (ELISA); settings: lipoprotein equivalent to 3 mM total cholesterol added; maximal value
Method: To determine whether the TGF-beta associated with lipoprotein particles was able to bind to the type II TGF-beta signaling receptor and exert biological activity in vitro, the binding of recombinant TGF-beta to R2X was measured in the absence and presence of increasing concentrations of lipoprotein purified from the plasma of an individual with <1 ng/ml TGF-beta in plasma (individual I, Table 1). If the lipoprotein-associated fraction of TGF-beta is unavailable for binding, lipoproteins prepared from an individual with a very low plasma concentration of TGF-beta would be expected to reduce the binding of recombinant active TGF-beta to its receptors. The half maximal (ka) binding of recombinant TGF-beta to the recombinant extracellular domain of the type II TGF-beta receptor was previously determined to be 17±3 ng/ml (R2X; Grainger et al., Nature, 270, 460 (1994); Grainger et al., Clin. Chim. Acta, 235, 11 (1995)).
To measure the binding of TGF-beta to its receptor, the recombinant extracellular domain of the type II TGF-beta receptor (R2X), was coated onto ELISA plates (1 μg/well, Maxisorp plates, Gibco BRL). Wells were washed 3 times quickly in TBS and blocked with TBS containing 3% bovine serum albumin (BSA, fatty-acid free; Sigma) for 30 minutes. […] The amount of bound TGF-beta was detected with antibody BDA5 (R&D Systems) as previously described by Grainger et al., Clin. Chim. […]

[9] = rats; cited from earlier work
[10] = TNF-alpha (20 ng/ml) and tamoxifen (5 μM) simultaneously

T1 sequence (P37173 23-166 limits assumed): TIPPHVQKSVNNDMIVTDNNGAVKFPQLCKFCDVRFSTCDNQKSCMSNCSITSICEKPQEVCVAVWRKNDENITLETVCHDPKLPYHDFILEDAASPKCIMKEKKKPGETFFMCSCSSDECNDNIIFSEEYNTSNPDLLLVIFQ

Compound: CC(=O)Oc1ccccc1C(=O)[O-].CC(=O)Oc1ccccc1C(=O)[O-].[Cu+2] [Cu aspirinate, copper II (acetyl salicylate)2]
potency at stimulating TGF-beta relative to aspirin (TGF-beta [1]): almost two orders of magnitude more potent

Compound: CC/C(=C(\c1ccccc1)c1ccc(OCCN(C)C)cc1)c1ccccc1 [TMX, trans-2-[4-(1,2-diphenyl-1-butenyl)phenoxy]-N,N-dimethylethylamine]
lowering of VLDL [2]: seven fold | long-term carcinogenicity [3]: liver carcinogenicity | inhibition at 5 µM (NFkB; Homo sapiens, read-out: inhibition of TNF-alpha-induced NFkB activity): 86 ± 12% | NFkB translocated to the nucleus (NFkB; [10]): less than 10% | stimulation of NFkB activity (NFkB; [10]): less than 3 fold | change in NFkB activity (NFkB; tamoxifen alone): no detectable change | Plasma (a + 1) TGF-β, Method (A) (TGF-beta [4]; Day 10, BDA19/BDA5 sandwich ELISA): 7.7 ± 1.5 ng/mL | Plasma (a + 1) TGF-β, Method (E) (TGF-beta [4]; Day 10, BioTrak, acid alone): 2.3 ± 0.1 ng/mL | Plasma (a + 1) TGF-β, Method (D) (TGF-beta [4]; Day 10, BioTrak, acid/urea): 2.4 ± 0.1 ng/mL | Plasma (a + 1) TGF-β, Method (F) (TGF-beta [4]; Day 10, Genzyme, acid/urea): 5.2 ± 0.3 ng/mL | Plasma (a + 1) TGF-β, Method (G) (TGF-beta [4]; Day 10, Promega, acid alone): 0.2 ± 0.1 ng/mL | Plasma (a + 1) TGF-β, Method (C) (TGF-beta [4]; Day 10, Quantikine, acid alone): 0.62 ± 0.07 ng/mL | Plasma (a + 1) TGF-β, Method (B) (TGF-beta [4]; Day 10, Quantikine, acid/urea): 1.2 ± 0.2 ng/mL | change in plasma (a + 1) TGF-β, Method (A) (TGF-beta [4]; Day 10 vs Day 0): (+24%) | change in plasma (a + 1) TGF-β, Method (B) (TGF-beta [4]; Day 10 vs Day 0): (+71%) | change in plasma (a + 1) TGF-β, Method (C) (TGF-beta [4]; Day 10 vs Day 0): (+148%) | change in plasma (a + 1) TGF-β, Method (D) (TGF-beta [4]; Day 10 vs Day 0): (+20%) | change in plasma (a + 1) TGF-β, Method (E) (TGF-beta [4]; Day 10 vs Day 0): (+29%) | change in plasma (a + 1) TGF-β, Method (F) (TGF-beta [4]; Day 10 vs Day 0): (+59%) | change in plasma (a + 1) TGF-β, Method (G) (TGF-beta [4]; Day 10 vs Day 0): (+100%) | proportion of plasma TGF-beta that is lipoprotein-associated (TGF-beta [4]; after 10 days of TMX therapy, Quantikine ELISA): 25±3% | median increase in (a+1) TGF-beta (TGF-beta [4]; by day 10): 59% | HDL-cholesterol ([5]; Day 10): 0.77 ± 0.04 mM | LDL-cholesterol ([5]; Day 10): 4.16 ± 0.25 mM | Lipoprotein(a) ([5]; Day 10): 42.4 ± 9.5 mg/dL | Plasma PAI-I antigen ([5]; Day 10): 35.9 ± 5.4 ng/mL | Total plasma triglycerides ([5]; Day 10): 2.28 ± 0.35 mM | VLDL-cholesterol ([5]; Day 10): 0.84 ± 0.11 mM | Total plasma cholesterol ([5]; Day 10, mean ± standard error, 15 patients): 5.95 ± 0.29 mM | concentration of HDL-cholesterol, change ([5]; after 10 days): unchanged | concentration of LDL-cholesterol, change ([5]; after 10 days): unchanged | decrease in total plasma cholesterol below baseline ([5]; after 10 days): 6% | reduction of cholesterol in the VLDL fraction below baseline ([5]; after 10 days): 18% | lowering of total plasma triglyceride concentration ([5]; after 10 days, not statistically significant (p=0.22)): 18% | decrease in plasma concentration of Lp(a) ([5]; day 3 vs baseline): 27% | reduction in Lp(a) concentration ([5]; day 10 vs baseline): 31% | % Lesion Suppression (apoE knockout mice): 99* %

NFkB translocated to the nucleus (NFkB; 20 ng/ml, 6 hours at 37° C.): > 80% | increase in NFkB activity (NFkB; 20 ng/ml, 6 hours, luciferase reporter): 19 fold
Compound: TNF-alpha

Compound: C[C@@H]1C[C@H]2[C@@H]3CCC4=CC(=O)C=C[C@]4(C)[C@@]3(F)[C@@H](O)C[C@]2(C)[C@@]1(O)C(=O)CO [dexamethasone]
elevation of expression of the CAT gene (GR): 3.7±0.7 fold

Compound: CC/C(=C(/c1ccc(I)cc1)c1ccc(OCCN(C)C)cc1)c1ccccc1 [4-iodotamoxifen]
covalent (hepatic) DNA adducts [3]: absence of DNA adducts

apparent ka for TGF-beta binding to R2X [8]: 42 ± 6 ng/mL
Compound: recombinant TGF-beta: recombinant active TGF-beta1 (R&D Systems)
MvLu cell ID50 ([6]; 3 mM total cholesterol lipoprotein added, maximal): 0.52 ± 0.08 ng/mL | MvLu cell ID50 ([6]; no lipoprotein, n=6): 0.12 ± 0.04 ng/mL | half maximal (ka) binding of recombinant TGF-beta to R2X [7]: 17 ± 3 ng/mL

Compound: CN(C)CCOc1ccc(/C(=C(/CCCl)c2ccccc2)c2ccccc2)cc1 [Toremifene, toremifene]
covalent (hepatic) DNA adducts [3]: very low level | long-term carcinogenicity [3]: non-carcinogenic

Compound: CC/C(=C(\c1ccc(I)cc1)c1ccc(OCCN2CCCC2)cc1)c1ccccc1 [idoxifene, (E)-1-[4-[2-(N-pyrrolidino)ethoxy]phenyl]-1-(4-iodophenyl)-2-phenyl-1-butene]
covalent (hepatic) DNA adducts [3]: absence of DNA adducts | residual estrogenic activity compared with TMX [9]: reduced residual estrogenic activity
